Where a SMILES comes first, the peptide text is derived from it. Bridges are numbered along the chain shown (N, C = ends). Where only a bound is given, the exact number is not on record here.

Data set [1] relates to WSN virus. In words: microbe, parasite or virus in culture. Particulars: unidentified influenza virus, MDCK, 48 h, read-out: IC50 (μM), antiinfluenza.
Data set [2] is described as follows: Cytotoxicity assay in MDCK cells (MTS). The following applies: dog; concentration needed to inhibit 50% growth of MDCK cells in 48 h. The class given is cell-based. Here is the method: In a 96-well plate, 1×10^4 MDCK cells were seeded per well and incubated for 24 h at 37° C. The MDCK cells were then incubated with compounds for 48 h at 35° C. The number of metabolically viable cells was determined by the MTS assay (Promega).

In data set [3] the target is NP WT trimer (Influenza A virus, UniProt P15682). The class given is binding, influenza A virus (WSN).
Data set [4] deals with RDRP activity of WSN virus. The class given is biochemical, Influenza virus A/WSN/33 (H1N1).
Data set [5] concerns rWSN virus (parental). Briefly: microbe, parasite or virus in culture. The class given is cell-based. The following applies: unidentified influenza virus, MDCK, 48 h, read-out: Anti-rWSN IC50 (μM), parental.

NP WT trimer, sequence (P15682 whole entry, looked up): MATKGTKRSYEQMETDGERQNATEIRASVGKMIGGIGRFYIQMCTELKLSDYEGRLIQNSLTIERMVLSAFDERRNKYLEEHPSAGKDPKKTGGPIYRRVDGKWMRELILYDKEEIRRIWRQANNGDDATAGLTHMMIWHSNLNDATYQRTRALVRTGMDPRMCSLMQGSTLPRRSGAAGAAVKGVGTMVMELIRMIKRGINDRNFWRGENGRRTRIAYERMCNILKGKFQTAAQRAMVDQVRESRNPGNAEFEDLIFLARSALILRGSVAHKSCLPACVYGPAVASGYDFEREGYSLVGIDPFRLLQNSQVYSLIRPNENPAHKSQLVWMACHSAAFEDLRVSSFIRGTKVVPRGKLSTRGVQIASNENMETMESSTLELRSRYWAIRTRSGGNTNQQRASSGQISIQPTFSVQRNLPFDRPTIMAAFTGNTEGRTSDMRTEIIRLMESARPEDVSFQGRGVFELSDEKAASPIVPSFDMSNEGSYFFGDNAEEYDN

The IC50 is the concentration that gives 50% inhibition. In general, CC50 refers to the concentration that lowers cell viability or growth by half. High values mean lower toxicity to the cells, low ones greater toxicity to the cells. `Cc1cccc(CSc2nc(=O)n(CCCO)c3c2CCC3)c1` [compound 4]: in data set [1], the IC50 was determined as 39.7 µM. This compound had a CC50 at 48 h in data set [2] greater than 100 µM. Moreover, the “effect of compounds on NP WT trimer (AUC)” value (shortened to “effect of compounds”) in data set [3] was “able to disrupt NP trimerization and induce formation of NP monomers”.
In data set [2], `CC(C)[C@@H]1NC(=O)[C@H](CO)NC(=O)[C@H](Cc2ccccc2)NC(=O)[C@H]([C@@H](C)O)NC(=O)[C@@H](N)CSSC[C@@H](C(=O)O)NC(=O)[C@H](CC(N)=O)NC(=O)[C@H](CCCNC(=N)N)NC(=O)[C@H](CCC(N)=O)NC1=O` [peptide 2] registered a half-maximal cytotoxic concentration (CC50) at 48 h greater than 2000 µM. Moreover, the “inhibition of viral transcription activity” value in data set [4] was “reduce the viral transcription activity”. The “effect of peptides on WT NP trimerization (AUC)” value (shortened to “effect of peptides”) in data set [3] is reported as “the effect was substantially enhanced”.
As to TFDSVQRN [peptide 1], the “effect of peptides” value in data set [3] was “disrupted WT NP trimerization only slightly”.
As for `CCCCCCCCC(=O)NCC(=O)Nc1cccc(F)c1` [compound 2], the IC50 in data set [1] worked out at 37.5 µM. This compound registered a CC50 at 48 h in data set [2] greater than 100 µM. Besides, the “effect of compounds” value in data set [3] is “able to disrupt NP trimerization and induce formation of NP monomers”.
Regarding `CCCCCC(=O)NCC(=O)Nc1cc(Cl)ccc1Cl` [compound 3], the IC50 in data set [1] is 118 µM. For the same compound, in data set [2], the CC50 at 48 h was greater than 100 µM. Besides, in data set [3], the “effect of compounds” value was “able to disrupt NP trimerization and induce formation of NP monomers”.
On to `O=C(NCCCN1CCOCC1)c1csc(Nc2ccc(Cl)c(Cl)c2)n1` [compound 1], for which the IC50 turned out to be 2.7 µM in data set [1] and 1.7 µM in data set [5]. This compound also registered a half-maximal cytotoxic concentration (CC50) at 48 h in data set [2] of 35.6 µM. In addition, the “effect of compounds” value in data set [3] is “able to disrupt NP trimerization and induce formation of NP monomers”.
Take `Cc1onc(-c2ccccc2)c1C(=O)N1CCN(c2ccc([N+](=O)[O-])cc2Cl)CC1` [nucleozin, reference compound]: the “effect of compounds” value in data set [3] is reported as “caused aggregation of the NP trimer”.
Turning to `CC(C)C[C@@H]1NC(=O)[C@H](CC(N)=O)NC(=O)[C@H](CCCNC(=N)N)NC(=O)[C@H](CCC(N)=O)NC(=O)[C@H](C(C)C)NC(=O)[C@H](CO)NC(=O)[C@H](Cc2ccccc2)NC(=O)[C@H]([C@@H](C)O)NC(=O)[C@@H]2CCCN2C(=O)[C@H](CCC(N)=O)NC(=O)[C@@H](N)CSSC[C@@H](C(=O)O)NC1=O` [peptide 3] (H-CQPTFSVQRNLC-OH; disulfide 1-12), the CC50 at 48 h in data set [2] is greater than 2000 µM. Further, the “inhibition of viral transcription activity” value in data set [4] is “reduce the viral transcription activity”. The “effect of peptides” value in data set [3] is listed as “showed a slightly greater effect”.

For the origin of these results see patent US20130040952A1 (priority 2011, published 2013).
